# Laboratory results reported in US10988523B2, “Modified lipidated Relaxin B chain peptides and their therapeutic use” (Sanofi, priority 2018, dated 2021).
# *1 amine or outer side, *2 acyl side, *3 side chain or, on linkers, in order; H or OH if unused. Where a SMILES comes first, the peptide text is derived from it. Side-chain parts run from the residue outwards. [ ]: non-standard residue; d: D form. The star is where a group is joined. X11 = CCCCCCCCCCCCCCCC(=O)N[C@@H](CCC(=O)NCCCC[C@H](NC(=O)CC[C@H](NC(=O)CC[C@H](NC(=O)CC[C@H](NC(=O)CCC(=O)NCCCOCCOCCOCCCNC(=O)CCC(=O)NCCCOCCOCCOCCCNC(=O)CCC(=O)NCCCOCCOCCOCCCN*)C(=O)O)C(=O)O)C(=O)O)C(N)=O)C(=O)O; γGlu = O=C(O)[C@H](CCC(=O)[*:2])N[*:1]; Palmitoyl = CCCCCCCCCCCCCCCC(=O)*; αMeK = C[C@](N)(CCCCN)C(=O)O; Nle = CCCC[C@H](N)C(=O)O; AEEA = NCCOCCOCC(=O)O; Aib = CC(C)(N)C(=O)O
# Key:
# RXFP1 = target: T1, RXFP1 (Homo sapiens, UniProt Q9HBX9); test: OVCAR5 cAMP assay (HTRF), RXFP1 agonist activity; type: cell-based; details: for EC50: OVCAR5 cells, cAMP HTRF, read-out: EC50 (nM), OVCAR 5 cells (cAMP); for Emax: OVCAR-5, maximal cAMP relative to H2-relaxin maximum (100%), read-out: EMax, OVCAR 5 cells (cAMP)
# T1 construct: OVCAR5 cells expressing endogenous RXFP1; endogenous in cells; host or cells: OVCAR5 cells
# T1 sequence (Q9HBX9 1-757): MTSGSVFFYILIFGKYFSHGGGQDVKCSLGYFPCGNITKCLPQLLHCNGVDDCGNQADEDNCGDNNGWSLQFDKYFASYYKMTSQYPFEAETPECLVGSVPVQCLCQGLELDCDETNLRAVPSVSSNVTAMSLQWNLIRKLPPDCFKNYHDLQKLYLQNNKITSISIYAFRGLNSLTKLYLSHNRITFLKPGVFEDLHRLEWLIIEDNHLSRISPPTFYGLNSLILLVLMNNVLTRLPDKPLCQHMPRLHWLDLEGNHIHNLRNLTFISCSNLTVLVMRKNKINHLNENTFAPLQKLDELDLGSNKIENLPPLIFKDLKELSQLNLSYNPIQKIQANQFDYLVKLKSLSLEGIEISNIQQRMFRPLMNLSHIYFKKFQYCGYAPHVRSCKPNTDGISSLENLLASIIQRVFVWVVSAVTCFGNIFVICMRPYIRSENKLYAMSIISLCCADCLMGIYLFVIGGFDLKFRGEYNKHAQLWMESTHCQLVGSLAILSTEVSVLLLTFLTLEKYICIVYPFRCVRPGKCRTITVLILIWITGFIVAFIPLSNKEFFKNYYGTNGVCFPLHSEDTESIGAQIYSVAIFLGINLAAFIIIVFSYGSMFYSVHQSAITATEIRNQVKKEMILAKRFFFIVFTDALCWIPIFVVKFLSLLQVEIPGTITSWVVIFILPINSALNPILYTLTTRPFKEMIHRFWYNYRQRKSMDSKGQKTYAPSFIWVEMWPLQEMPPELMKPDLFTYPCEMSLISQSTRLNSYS
# How it was run: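 cAMP accumulation readout: after 1 mM IBMX for 40 min, endogenous-RXFP1 OVCAR5 cells got rising peptide concentrations without FCS, 30 min, 37° C, then lysis with HTRF cAMP reagents. Nonlinear regression gave EC50; Emax expressed relative to H2-relaxin maximum, same occasion.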
# [1] = Pharmacokinetic (PK) determination after i.v. or s.c. administration to rats; type: in vivo, Sprague Dawley rats; details: Rat PK, 1 mg/kg i.v.
# Experimental: Prior to the testing of a peptide batch, its purity (HPLC-UV) was determined. Dose was corrected for presence of salts, solvent and purity.
# Sprague Dawley rats were dosed with study peptide at a dose of 1 mg/kg intravenously (i.v.) or 3 mg/kg subcutaneously (s.c.) as a solution in PBS (0.2 mg/ml and 0.6 mg/ml respectively).
# Plasma samples were analyzed after protein precipitation via liquid chromatography mass spectrometry (LC/MS).
# PK parameters and half-life were calculated using Phoenix 64 (WinNonlin 6.4)-Pharsight (Certara™) (non-compartment model). Values below the limit of quantification (BLQ) were replaced by zero for subsequent calculations and PK analysis.
# T½: in-vivo half life, time required for test compound plasma concentration to be divided by two during the PK experiment.
# C0: Extrapolated test compound plasma concentration at t=0 time point (i.v. route).
# Cmax: maximal test compound plasma concentration at the indicated time point (s.c. route).
# Tmax: Time point where Cmax is attained.
# F %: s.c. vs i.v. bioavailability, dose-corrected area under curve (AUC) s.c. route divided by AUC i.v.
Molecule,EC50 (RXFP1) [nM],Emax (RXFP1) [%],T½ (in-vivo half life) [1] [min],C0 ([1]; read-out: C0 (extrapolated plasma concentration at t=0)) [nM]
CCCCCCCCCCCCCCCC(=O)N[C@@H](CCC(=O)N[C@@H](CCC(=O)N[C@@H](CCC(=O)N[C@@H](CCC(=O)NCCOCCOCC(=O)NCCOCCOCC(=O)NCCOCCOCC(=O)NCCOCCOCC(=O)NCCCC[C@H](NC(=O)[C@H](CCCCNC(C)=O)NC(=O)[C@H](C)NC(=O)[C@H](CCCNC(=N)N)NC(=O)[C@](C)(CCCCN)NC(=O)[C@H](CO)NC(=O)[C@H](Cc1ccccc1)NC(=O)[C@@H](NC(=O)[C@H](CO)NC(=O)[C@H](CCC(N)=O)NC(=O)CNC(=O)[C@H](CCC(=O)O)NC(=O)C(C)(C)NC(=O)C(C)(C)NC(=O)[C@@H](NC(=O)[C@H](CCCCNC(C)=O)NC(=O)[C@H](C)NC(=O)[C@H](CCCNC(=N)N)NC(=O)[C@@H](NC(=O)[C@H](CCCCN)NC(=O)[C@H](CCC(=O)O)NC(=O)[C@H](CCCNC(=N)N)NC(=O)CNC(=O)[C@H](CCC(=O)O)NC(=O)[C@H](CC(C)C)NC(C)=O)C(C)C)[C@@H](C)CC)[C@@H](C)O)C(N)=O)C(=O)O)C(=O)O)C(=O)O)C(=O)O [compound 191] (Ac-LEGREKVRAK(Ac)I[Aib][Aib]EGQSTFS[αMeK]RAK(Ac)K([AEEA-AEEA-AEEA-AEEA-γGlu-γGlu-γGlu-γGlu-Palmitoyl])-NH2),0.17,93,,
CCCCCCCCCCCCCCCC(=O)N[C@@H](CCC(=O)N[C@@H](CCC(=O)N[C@@H](CCC(=O)NCCCC[C@H](NC(=O)COCCOCCNC(=O)COCCOCCNC(=O)COCCOCCNC(=O)COCCOCCNC(=O)[C@H](CCCCNC(C)=O)NC(=O)[C@H](C)NC(=O)[C@H](CCCNC(=N)N)NC(=O)[C@](C)(CCCCN)NC(=O)[C@H](CO)NC(=O)[C@H](Cc1ccccc1)NC(=O)[C@@H](NC(=O)[C@H](CO)NC(=O)[C@H](CCCC)NC(=O)CNC(=O)[C@H](CCC(=O)O)NC(=O)C(C)(C)NC(=O)C(C)(C)NC(=O)[C@@H](NC(=O)[C@H](CCCCNC(C)=O)NC(=O)[C@H](C)NC(=O)[C@H](CCCNC(=N)N)NC(=O)[C@@H](NC(=O)[C@H](CCCCN)NC(=O)[C@H](CCC(=O)O)NC(=O)[C@H](CCCNC(=N)N)NC(=O)CNC(=O)[C@H](CCC(=O)O)NC(=O)[C@H](CC(C)C)NC(C)=O)C(C)C)[C@@H](C)CC)[C@@H](C)O)C(N)=O)C(=O)O)C(=O)O)C(=O)O [compound 192] (Ac-LEGREKVRAK(Ac)I[Aib][Aib]EG[Nle]STFS[αMeK]RAK(Ac)[AEEA][AEEA][AEEA][AEEA]K([γGlu-γGlu-γGlu-Palmitoyl])-NH2),,91,,
CCCCCCCCCCCCCCCC(=O)N[C@@H](CCC(=O)NCCCC[C@H](NC(=O)CC[C@H](NC(=O)CC[C@H](NC(=O)CC[C@H](NC(=O)CCC(=O)NCCCOCCOCCOCCCNC(=O)CCC(=O)NCCCOCCOCCOCCCNC(=O)CCC(=O)NCCCOCCOCCOCCCNC(=O)[C@H](CCCCNC(C)=O)NC(=O)[C@H](C)NC(=O)[C@H](CCCNC(=N)N)NC(=O)[C@](C)(CCCCN)NC(=O)[C@H](CO)NC(=O)[C@H](Cc1ccccc1)NC(=O)[C@@H](NC(=O)[C@H](CO)NC(=O)[C@H](CCCC)NC(=O)CNC(=O)[C@H](CCC(=O)O)NC(=O)C(C)(C)NC(=O)C(C)(C)NC(=O)[C@@H](NC(=O)[C@H](CCCCNC(C)=O)NC(=O)[C@H](C)NC(=O)[C@H](CCCNC(=N)N)NC(=O)[C@@H](NC(=O)[C@H](CCCCN)NC(=O)[C@H](CCC(=O)O)NC(=O)[C@H](CCCNC(=N)N)NC(=O)CNC(=O)[C@H](CCC(=O)O)NC(=O)[C@H](CC(C)C)NC(C)=O)C(C)C)[C@@H](C)CC)[C@@H](C)O)C(=O)O)C(=O)O)C(=O)O)C(N)=O)C(=O)O [compound 193] (Ac-LEGREKVRAK(Ac)I[Aib][Aib]EG[Nle]STFS[αMeK]RAK(Ac)-X11),0.2,100,,
H2-Relaxin: 6-kDa peptidic hormone of 53 amino acids; chain A (SEQ ID NO: 194) and chain B (SEQ ID NO: 195) cross-linked by disulfide bonds,,,27.6,870
